In patent US11813306B2, “Cyclic tetramer compounds as proprotein convertase subtilisin/kexin type 9 (PCSK9) inhibitors for the treatment of metabolic disorders” (NOVARTIS AG, priority 2018, dated 2023) one finds IC50 and Max % inhibition data, which are given here for 15 compounds.

The target of this assay is human PCSK9 (Homo sapiens, UniProt Q8NBP7). In words: PCSK9 ligand binding assay (TR-FRET): interference with binding of human PCSK9 to human LDLR. The following applies: for IC50: Human PCSK9 Alexa Fluor 647 / Human LDLR extracellular domain-Europium Kryptate; for Max % inhibition: efficacy (Amax), 100% = 1 uM unlabeled human PCSK9, 0% = DMSO. Put shortly: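 Read-out was TR-FRET ratio (665 nm over 615 nm, 330 nm excitation) between Alexa Fluor 647-human PCSK9 (16 nM added) and Europium Kryptate-human LDLR ectodomain (4 nM added). Compound and PCSK9 were mixed 30 min before LDLR, then incubated 2 h. Inhibition was normalised to DMSO and unlabelled-PCSK9 controls, giving IC50 and Amax.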
For orientation: In TR-FRET formats the signal depends on donor and acceptor labels being close together.

human PCSK9, sequence (Q8NBP7 153-692): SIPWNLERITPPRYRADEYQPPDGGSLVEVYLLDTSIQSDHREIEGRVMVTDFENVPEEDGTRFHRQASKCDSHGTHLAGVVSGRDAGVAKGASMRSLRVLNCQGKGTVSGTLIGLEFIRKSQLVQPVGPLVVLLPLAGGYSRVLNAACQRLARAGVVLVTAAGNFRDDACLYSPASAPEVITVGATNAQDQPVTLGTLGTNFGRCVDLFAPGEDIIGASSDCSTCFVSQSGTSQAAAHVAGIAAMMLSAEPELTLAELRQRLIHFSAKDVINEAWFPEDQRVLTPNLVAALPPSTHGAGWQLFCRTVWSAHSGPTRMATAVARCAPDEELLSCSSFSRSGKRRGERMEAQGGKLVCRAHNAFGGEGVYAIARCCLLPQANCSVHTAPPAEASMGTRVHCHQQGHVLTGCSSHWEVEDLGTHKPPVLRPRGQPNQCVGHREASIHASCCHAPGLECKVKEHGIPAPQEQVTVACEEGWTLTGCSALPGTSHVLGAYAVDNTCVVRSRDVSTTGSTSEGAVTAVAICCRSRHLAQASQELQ
human PCSK9, sequence (Q8NBP7 31-152 partner limits assumed): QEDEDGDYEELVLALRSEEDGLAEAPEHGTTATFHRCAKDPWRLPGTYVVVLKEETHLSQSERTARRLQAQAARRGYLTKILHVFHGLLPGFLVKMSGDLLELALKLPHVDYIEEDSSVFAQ

What is called IC50 is the concentration that gives 50% inhibition. A higher IC50 goes with weaker potency in that assay. For the compound `COC[C@@H]1NC(=O)[C@H](C)N(Cc2ccc(Cl)cc2Oc2ccc(-c3cnc(CN4CC[C@H](N(C)C)C4)n3C)cc2)C(=O)C[C@@H](Cc2ccccc2)C(=O)N2CCC[C@@](Cc3ccc(Cl)cc3)(C2)NC1=O.Cl` [Compound 72, (3R, 7S, 10S, 13R)-3-benzyl-6-(4-chloro-2-(4-(2-(((S)-3-(dimethylamino)pyrrolidin-1-yl)methyl)-1-methyl-1H-imidazol-5-yl)phenoxy)benzyl)-13-(4-chlorobenzyl)-10-(methoxymethyl)-7-methyl-1,6,9,12-tetraazabicyclo[11.3.1]heptadecane-2,5,8,11-tetraone], the IC50 is 837 pM and the Max % inhibition is recorded as 100.1%.
On the same counts, the results for `C[C@H]1C(=O)N[C@@H](CO)C(=O)N[C@@]2(Cc3ccc(Cl)cc3)CCCN(C2)C(=O)[C@H]([C@@H]2CCc3ccccc32)CC(=O)N1Cc1cc(F)ccc1Oc1ccc(-c2cnc(CN(C)C)n2C)cc1` [Compound 73] are 1360 pM and 95.0%.
Consider `C[C@H]1C(=O)N[C@@H](CO)C(=O)N[C@@]2(Cc3ccc(Cl)cc3)CCCN(C2)C(=O)[C@H]([C@@H]2CCc3ccccc32)CC(=O)N1Cc1ccc(Cl)cc1Oc1ccc(-c2cnc(CN3CCCC3)n2C)cc1.Cl` [Compound 74, (3S, 7S, 10S, 13R)-6-(4-chloro-2-(4-(1-methyl-2-(pyrrolidin-1-ylmethyl)-1H-imidazol-5-yl)phenoxy)benzyl)-13-(4-chlorobenzyl)-3-((S)-2,3-dihydro-1H-inden-1-yl)-10-(hydroxymethyl)-7-methyl-1,6,9,12-tetraazabicyclo[11.3.1]heptadecane-2,5,8,11-tetraone], for which the half-inhibitory concentration (IC50) is 1730 pM and the Max % inhibition is reported as 99.1%.
Take `C[C@H]1C(=O)N[C@@H](CO)C(=O)N[C@@]2(Cc3ccc(Cl)cc3)CCCN(C2)C(=O)[C@H](Cc2ccccc2)CC(=O)N1Cc1c(F)cc(F)cc1Oc1ccc(-c2cnc(CN3CCCC3)n2C)cc1` [Compound 75, (3R, 7S, 10S, 13R)-3-benzyl-13-(4-chlorobenzyl)-6-(2,4-difluoro-6-(4-(1-methyl-2-(pyrrolidin-1-ylmethyl)-1H-imidazol-5-yl)phenoxy)benzyl)-10-(hydroxymethyl)-7-methyl-1,6,9,12-tetraazabicyclo[11.3.1]heptadecane-2,5,8,11-tetraone]: the IC50 worked out at 758 pM and the Max % inhibition was found to be 113.3%.
Consider `COC[C@@H]1NC(=O)[C@H](C)N(Cc2ccc(Cl)cc2Oc2ccc(-c3cnc(CN4CCN(C)CC4)n3C)cc2)C(=O)C[C@@H](Cc2ccccc2)C(=O)N2CCC[C@@](Cc3ccc(Cl)cc3)(C2)NC1=O.Cl` [Compound 76, (3R, 7S, 10S, 13R)-3-benzyl-6-(4-chloro-2-(4-(1-methyl-2-((4-methylpiperazin-1-yl)methyl)-1H-imidazol-5-yl)phenoxy)benzyl)-13-(4-chlorobenzyl)-10-(methoxymethyl)-7-methyl-1,6,9,12-tetraazabicyclo[11.3.1]heptadecane-2,5,8,11-tetraone], for which the IC50 was found to be 810 pM and the Max % inhibition is on record as 101.7%.
Consider `C[C@H]1C(=O)N[C@@H](CO)C(=O)N[C@@]2(Cc3ccc(Cl)cc3)CCCN(C2)C(=O)[C@H]([C@@H]2CCc3ccccc32)CC(=O)N1Cc1ccc(Cl)cc1Oc1ccc(-c2cnc(C3=CCN(C)C3)n2C)cc1.Cl` [Compound 77, (3S,7S,10S,13R)-6-(4-chloro-2-(4-(1-methyl-2-(1-methyl-2,5-dihydro-1H-pyrrol-3-yl)-1H-imidazol-5-yl)phenoxy)benzyl)-13-(4-chlorobenzyl)-3-((S)-2,3-dihydro-1H-inden-1-yl)-10-(hydroxymethyl)-7-methyl-1,6,9,12-tetraazabicyclo[11.3.1]heptadecane-2,5,8,11-tetraone hydrochloride], for which the IC50 turned out to be 979 pM and the Max % inhibition is recorded as 71.9%.
On the same counts, the results for `C[C@H]1C(=O)N[C@@H](CO)C(=O)N(C)[C@@]2(Cc3ccc(Cl)cc3)CCCN(C2)C(=O)[C@H](Cc2ccccc2)CC(=O)N1Cc1c(F)cc(Cl)cc1Oc1ccc(-c2cnc(CN(C)C)n2C)cc1` [Compound 79, (3R, 7S, 10S, 13R)-3-benzyl-6-(4-chloro-2-(4-(2-((dimethylamino)methyl)-1-methyl-1H-imidazol-5-yl)phenoxy)-6-fluorobenzyl)-13-(4-chlorobenzyl)-10-(hydroxymethyl)-7,12-dimethyl-1,6,9,12-tetraazabicyclo[11.3.1]heptadecane-2,5,8,11-tetraone] are 819 pM and 108.3%.
For the compound `C[C@H]1C(=O)N[C@@H](CO)C(=O)N[C@@]2(Cc3ccc(Cl)cc3)CCCN(C2)C(=O)[C@H](Cc2cccc(C(F)(F)F)c2)CC(=O)N1Cc1c(F)cc(Cl)cc1Oc1ccc(-c2cnc(CN(C)C)n2C)cc1` [Compound 80, (3R, 7S, 10S, 13R)-6-(4-chloro-2-(4-(2-((dimethylamino)methyl)-1-methyl-1H-imidazol-5-yl)phenoxy)-6-fluorobenzyl)-13-(4-chlorobenzyl)-10-(hydroxymethyl)-7-methyl-3-(3-(trifluoromethyl)benzyl)-1,6,9,12-tetraazabicyclo[11.3.1]heptadecane-2,5,8,11-tetraone], the IC50 is 624 pM and the Max % inhibition was 106.6%.
For `C[C@H]1C[C@H]([C@@H]2CC(=O)N(Cc3ccc(Cl)cc3Oc3ccc(-c4cnc(CN(C)C)n4C)cc3)[C@@H](C)C(=O)N[C@@H](CO)C(=O)N(C)[C@H](Cc3ccc(Cl)cc3)CN(C)C2=O)c2ccccc21.Cl` [Compound 81, (2S, 5S, 8R, 12S)-1-(4-chloro-2-(4-(2-((dimethylamino)methyl)-1-methyl-1H-imidazol-5-yl)phenoxy)benzyl)-8-(4-chlorobenzyl)-5-(hydroxymethyl)-2,7,10-trimethyl-12-((1R,3S)-3-methyl-2,3-dihydro-1H-inden-1-yl)-1,4,7,10-tetraazacyclotetradecane-3,6,11,14-tetraone], the IC50 worked out at 950 pM and the Max % inhibition was 105.6%.
As for `C[C@H]1C(=O)N[C@@H](CO)C(=O)N(C)[C@@]2(Cc3ccc(Cl)cc3)CCCN(C2)C(=O)[C@H](CC(F)(F)F)CC(=O)N1Cc1c(F)cc(Cl)cc1Oc1ccc(-c2cnc(CN(C)C)n2C)cc1` [Compound 82, (3S,7S,10S,13R)-6-(4-Chloro-2-(4-(2-((dimethylamino)methyl)-1-methyl-1H-imidazol-5-yl)phenoxy)-6-fluorobenzyl)-13-(4-chlorobenzyl)-10-(hydroxymethyl)-7,12-dimethyl-3-(2,2,2-trifluoroethyl)-1,6,9,12-tetraazabicyclo[11.3.1]heptadecane-2,5,8,11-tetraone], the IC50 turned out to be 370 pM and the Max % inhibition was found to be 108.5%.
Consider `C[C@H]1C(=O)N[C@@H](CO)C(=O)N[C@@]2(Cc3ccc(Cl)cc3)CCCN(C2)C(=O)[C@H](CC(F)(F)F)CC(=O)N1Cc1ccc(Cl)cc1Oc1ccc(-c2cnc(CN(C)C)n2C)cc1` [Compound 83, (3S,7S,10S,13R)-6-(4-Chloro-2-(4-(2-((dimethylamino)methyl)-1-methyl-1H-imidazol-5-yl)phenoxy)benzyl)-13-(4-chlorobenzyl)-10-(hydroxymethyl)-7-methyl-3-(2,2,2-trifluoroethyl)-1,6,9,12-tetraazabicyclo[11.3.1]heptadecane-2,5,8,11-tetraone], for which the IC50 is 347 pM and the Max % inhibition amounted to 112.4%.
`C[C@H]1C(=O)N[C@@H](CO)C(=O)N[C@@]2(Cc3ccc(Cl)cc3)CCCN(C2)C(=O)[C@H]([C@@H]2CCc3ccccc32)CC(=O)N1Cc1ccc(Cl)cc1Oc1ccc(-c2cnc(CN(C)C)n2C)cc1.Cl` [Compound 84, (3S, 7S, 10S, 13R)-6-(4-chloro-2-(4-(2-((dimethylamino)methyl)-1-methyl-1H-imidazol-5-yl)phenoxy)benzyl)-13-(4-chlorobenzyl)-3-((S)-2,3-dihydro-1H-inden-1-yl)-10-(hydroxymethyl)-7-methyl-1,6,9,12-tetraazabicyclo[11.3.1]heptadecane-2,5,8,11-tetraone]: the IC50 was found to be 1680 pM and the Max % inhibition came out at 101.9%.
Consider `COC[C@@H]1NC(=O)[C@H](C)N(Cc2ncc(Cl)cc2Oc2ccc(-c3cnc(CN(C)C)n3C)nc2)C(=O)C[C@@H](Cc2ccccc2)C(=O)N2CCC[C@@](Cc3ccc(Cl)cc3)(C2)N(C)C1=O` [Compound 85], for which the IC50 was 1410 pM and the Max % inhibition was determined as 101.7%.
With `C[C@H]1C(=O)N[C@@H](CO)C(=O)N[C@@]2(Cc3ccc(Cl)cc3)CCCN(C2)C(=O)[C@H](Cc2ccccc2)CC(=O)N1Cc1c(F)cc(Cl)cc1Oc1ccc(-c2cnc(CN(C)C)n2C)cc1F` [Compound 87, (3R, 7S, 10S, 13R)-3-benzyl-6-(4-chloro-2-(4-(2-((dimethylamino)methyl)-1-methyl-1H-imidazol-5-yl)-2-fluorophenoxy)-6-fluorobenzyl)-13-(4-chlorobenzyl)-10-(hydroxymethyl)-7-methyl-1,6,9,12-tetraazabicyclo[11.3.1]heptadecane-2,5,8,11-tetraone], the half-maximal inhibitory concentration (IC50) came to 580 pM and the Max % inhibition is 111.7%.
In the case of `CCn1c(-c2ccc(Oc3cc(Cl)cc(F)c3CN3C(=O)C[C@@H](CC(F)(F)F)C(=O)N4CCC[C@@](Cc5ccc(Cl)cc5)(C4)NC(=O)[C@H](CO)NC(=O)[C@@H]3C)cc2)cnc1CN(C)C` [Compound 88, (3S, 7S, 10S, 13R)-6-(4-chloro-2-(4-(2-((dimethylamino)methyl)-1-ethyl-1H-imidazol-5-yl)phenoxy)-6-fluorobenzyl)-13-(4-chlorobenzyl)-10-(hydroxymethyl)-7-methyl-3-(2,2,2-trifluoroethyl)-1,6,9,12-tetraazabicyclo[11.3.1]heptadecane-2,5,8,11-tetraone], the IC50 turned out to be 3160 pM and the Max % inhibition stood at 99.0%.
